Experimental data from patent US20090209620A1, “Direct Reversal Of The Suppressive Function Of CD4+Regulatory T Cells Via Toll-Like Receptor 8 Signaling” (priority 2005, published 2009).
“Also recorded” adds a separate entry of the source. In the oligonucleotide strings, read from the 5' end, every base follows the letter of its sugar. An asterisk marks phosphorothioate; unmarked linkages are phosphodiester. Other units and linkages are bracketed, terminal groups are in braces. A string of capitals states the bases alone. d = 2'-deoxy (DNA)

Key:
[1] = test system: CD4+ Treg cells (Treg102, Treg164); assay: Proliferation assay without DCs: Treg suppression of naive CD4+ T cell proliferation, anti-CD3-coated plates; assay type: cell-based, human; settings: absence of DCs; for reversal of Treg cell-mediated suppression of naive CD4+ T cell proliferation: anti-CD3-coated plates, oligonucleotides 3 ug/ml in medium
Excerpt: Establishing Treg cell lines and purifying natural CD4^+ CD25^+ Treg cells CD4^+ Treg clones were established from CD4^+ tumor-infiltrating lymphocytes (TIL102 and TIL164) and maintained in RPMI 1640 medium containing 10% human AB serum and recombinant IL-2 (300 IU/ml) using methods well known in the art (See, e.g., H. Y. Wang et al., Immunity 20, 107-118 (2004)). Treg clones derived from TIL102 or TIL164 cells were pooled and designated Treg102 or Treg164. Naturally occurring CD4^+ CD25^+ Treg cells were obtained by sorting CD4^+ T cell populations from fresh PBMCs after staining with anti-CD4 and anti-CD25 antibodies. To obtain optimal expansion, the OKT3 expansion method was performed using methods well known in the art (See, e.g., H. Y. Wang et al., Immunity 20, 107-118 (2004)). T cell clones were maintained at a low IL-2 concentration (300 IU/ml). Melanoma cell lines and EBV-transformed B-cell lines used in this study were cultured in RPMI 1640 medium containing 10% FCS. Human embryonic kidney (HEK) 293 and Epstein-Barr virus (EBV)-transformed B cell lines were maintained in RPMI 1640 with 10% fetal calf serum (FCS).
B. Proliferation assay without DCs: 1×10^5 näive CD4 T cells were cultured with regulatory T cells at different ratios (1: 0.2, 1:0.1 and 1:0.05) in anti-CD3 mAb-coated (2 ug/ml) 96-well plates in the presence or absence of the following TLR ligands or cytokines: CpG-A (3 ug/ml), CpG-B (3 ug/ml), LPS (100 ng/ml), TNF.-α (20 ng/ml), IFN-α (100 ng/ml), or IL-6 (100 ng/ml). After 56 h of culture, [3H]thymidine was added at a final concentration of 1 uCi/well, followed by an additional 16 h of culture. The incorporation of [^3H]thymidine was measured with a liquid scintillation counter.
Näive CD4^+ T cell proliferation experiments were performed similar to those in FIG. 1A, but in the absence of DCs. […] The reversal effect of CpG-A (SEQ ID NO: 1) contrasts with the failure of CpG-B (SEQ ID NO: 2), LPS, TNF-α, IL-6 or IFN-α to block the suppressive activity of CD4^+ Treg cells against naive CD4^+ T cells (FIG. 1B).
To further define the CpG-A (SEQ ID NO: 1) sequences responsible for the observed reversal effect, CpG-NG (SEQ ID NO: 5) and Poly-G10 (SEQ ID NO: 6), were tested for their ability to reverse the suppressive function of Treg cells. Naive CD4^+ T cells were mixed with CD4^+ Treg cells in anti-CD3 antibody-coated 96-wells with 200 μl of medium containing CpG-NG (SEQ ID NO: 5), CpG-A (SEQ ID NO: 1) or Poly-G10 (SEQ ID NO: 6). The proliferation assay was conducted as described in FIG. 1. […] For the experiments shown in FIG. 2B, naive CD4^+ T cells were mixed with CD4^+ Treg cells in anti-CD3 antibody-coated 96-wells with 200 μl of medium containing Poly-A10 (SEQ ID NO: 7), Poly-T10 (SEQ ID NO: 9) or Poly-C10 (SEQ ID NO: 8), while the Poly-G10 (SEQ ID NO: 6) oligonucleotides served as a positive control.
A series of oligonucleotides with decreasing numbers of guanosine nucleosides was constructed to determine the minimal number required for the reversal effect. For the experiments in FIG. 2C, CD4^+ T cells were mixed with CD4^+ Treg cells in anti-CD3 antibody-coated 96-wells containing medium with protected phosphorothioate linked guanosine nucleoside containing oligonucleotides of various lengths, while the unprotected five guanosines (SEQ ID NO: 10) served as a control.

586mel human tumor cells = assay: Human 586mel tumor model in Rag1-/- mice with adoptive transfer of TIL586 and Treg102 cells; assay type: in vivo; settings: 586mel s.c. day 0; CD8+ TIL586 plus Treg102 cells with oligonucleotide on day 3; n=6 mice per group
Description: Human 586mel tumor cells (5×106) in 100 μl of buffered saline were subcutaneously injected into Rag1^−/− mice (lacking T and B cells) or Rag 2 ^−/− γC ^−/− mice (lacking T, B and NK cells) on day 0. Tumor-specific CD8^+ TIL586 cells (2.5×107), which recognize and kill 586mel cells, were injected intravenously on day 3 with or without Treg102 cells (3×106) pretreated with Poly-G10 or Poly-T10. Tumor size was measured with calipers every 2-3 days. Tumor volume was calculated on the basis of two-dimensioned measurements. Tumor growth curves were compared with the Wilcoxon rank-sum test.
The data in FIG. 4A-B confirms that TLR8 serves as a receptor for synthetic guanosine containing oligonucleotides and natural ssRNA40 and ssRNA33 ligands derived from HIV-1 virus, and that its activation in endosomes by synthetic DNA or ssRNA ligands triggers a signaling pathway that can reverse the suppressive function of Treg cells. To study the guanosine containing oligonucleotide induced reversal of Treg cell function in vivo, a human tumor model was established by subcutaneously injecting 586mel human tumor cells into Rag1^−/− (T and B cell deficient) mice. […] Tumor volumes were measured and presented as mean±SD (n=6 mice per group). P value was determined between groups as indicated. […]

| Substance | effect on proliferation of naive CD4+ T cells or Treg cells alone [1] | reversal of Treg cell-mediated suppression of naive CD4+ T cell proliferation [1] | tumor growth / antitumor immunity (586mel human tumor cells) |
| --- | --- | --- | --- |
| G* GGGGACGATCGTCG* G*G*G*G*G [CpG-A] | lacked any effect | restored the proliferation of naive CD4^+ T cells to near normal levels |  |
| Poly-G10: guanosine oligonucleotide with protected phosphorothioate backbone (DNA dG*dG*dG*dG*dG*dG*dG*dG*dG*dG) |  | retained or even enhanced | enhances antitumor immunity in vivo; also recorded: tumor growth was not detected during the first 42 days |
